Test results published in patent US7125671B2, “Nucleic acid amplification with terminal-phosphate labeled nucleotides” (GE Healthcare Bio-Sciences Corp., priority 2003, dated 2006).

How the values were obtained:
T. ba polymerase = experiment: PCR amplification with terminal-phosphate labeled nucleoside polyphosphates in the presence of stabilizing additives (FIG. 6); format: biochemical, Thermococcus barosii; conditions: dT4P-Me, dC4P-Me, 0.25 mM MnCl2, M13 DNA, 35 cycles
Experimental: Polymerase chain reaction (PCR) mixtures (20 μl) contained 25 mM Hepes (pH 8.1), 10 mM KCl, 2 mM MgSO4, 0.25 mM MnCl2, 1 mg/ml bovine serum albumin, 0.01% (v/v) Tween-20 and 10–25 mM salt as shown in FIG. 6. Each sample also contained 20 μm each of dA4P-Me, dT4P-Me, dC4P-Me, 200 μm dG4P-FlEt, 0.006 units/μl BAP, 2 units of T. ba polymerase, 0.1 μm −40 M13 forward primer, 0.1 μm −28 M13 reverse primer and 0.2 ng M13 DNA. In addition to the terminal-phosphate labeled nucleotide, terminal methyl-blocked dNTP's were used instead of normal dNTP's to prevent degradation by BAP (phosphatase). Latter is required for signal generation from dye-polyphosphate after the nucleotide is incorporated into DNA by polymerase. Reactions were carried out for 35 thermal cycles of 90° C., 30 sec.; 55° C., 30 sec.; and 65° C., 300 sec. Reaction products were loaded onto 1.6% agarose gels. The gels were stained with SYBR Gold (Molecular Probes) according to the manufacturers' instructions and scanned at 532 nm using a Typhoon fluorescence scanner (Amersham Biosciences). Gel size markers were a 100 bp ladder (Amersham Biosciences).

[1] = target: pfu (with A486Y mutation) polymerase (Pyrococcus furiosus, UniProt P61875, A486Y); experiment: Quantitative PCR with terminal-phosphate labeled nucleoside polyphosphates on ABI 7900; format: biochemical; conditions: 200 μm dG4P-FlEt with dA4P-Me, dT4P-Me, dC4P-Me; BAP; 50 cycles; FIG. 7
Chain of pfu (with A486Y mutation) polymerase (P61875 whole entry A486Y): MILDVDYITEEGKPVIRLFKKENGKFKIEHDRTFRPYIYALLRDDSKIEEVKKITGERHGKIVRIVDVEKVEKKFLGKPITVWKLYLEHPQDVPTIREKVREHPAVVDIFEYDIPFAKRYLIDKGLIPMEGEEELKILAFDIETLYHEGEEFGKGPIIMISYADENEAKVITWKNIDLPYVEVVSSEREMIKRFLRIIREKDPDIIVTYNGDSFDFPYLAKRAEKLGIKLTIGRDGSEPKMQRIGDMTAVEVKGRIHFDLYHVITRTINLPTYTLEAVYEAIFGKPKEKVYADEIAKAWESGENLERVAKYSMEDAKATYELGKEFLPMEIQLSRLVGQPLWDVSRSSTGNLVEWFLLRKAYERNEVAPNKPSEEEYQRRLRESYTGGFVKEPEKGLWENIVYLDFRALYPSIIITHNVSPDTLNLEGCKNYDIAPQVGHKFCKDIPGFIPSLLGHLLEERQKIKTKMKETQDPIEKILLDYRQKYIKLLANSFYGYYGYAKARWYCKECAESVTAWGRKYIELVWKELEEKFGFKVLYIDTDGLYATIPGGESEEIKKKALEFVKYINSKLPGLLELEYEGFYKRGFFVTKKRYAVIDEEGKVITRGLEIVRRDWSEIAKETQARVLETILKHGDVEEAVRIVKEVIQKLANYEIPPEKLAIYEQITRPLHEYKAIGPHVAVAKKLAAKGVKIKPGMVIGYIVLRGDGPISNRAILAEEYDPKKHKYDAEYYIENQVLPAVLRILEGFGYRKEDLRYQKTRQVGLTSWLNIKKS
Experimental: Polymerase chain reaction (PCR) mixtures (20 μl) contained 25 mM Tris.HCl (pH 9.0), 10 mM KCl, 2 mM MgSO4, 0.25 mM MnCl2, 1 mg/ml bovine serum albumin and 0.01% (v/v) Tween-20. Each sample also contained 20 μm each of dA4P-Me, dT4P-Me, dC4P-Me, 200 μm dG4P-FlEt, 0.005 units/μl BAP, 2 units of pfu (with A486Y mutation) polymerase, 0.1 μm −40 M13 forward primer, 0.1 μM −28 M13 reverse primer and 1.2×10^6–1.2×10^9 copies of M13 DNA. In addition to the terminal-phosphate labeled nucleotide, the remaining nucleotides were blocked with a methyl group on the terminal phosphate to prevent degradation by BAP. Reactions were carried out for 50 thermal cycles of 90° C., 30 sec.; 55° C., 30 sec.; and 65° C., 300 sec on ABI 7900 instrument.
Reaction products were also loaded onto 1.6% agarose gels. The gels were stained with SYBR Gold (Molecular Probes) according to the manufacturers' instructions and scanned at 532 nm using a Typhoon fluorescence scanner (Amersham Biosciences) to show the formation of PCR product (FIG. 8). Gel size markers were a 100 bp ladder (Amersham Biosciences).

[2] = Non-enzymatic hydrolysis of dT4P-DDAO in the presence of MnCl2, effect of other salts (FIG. 5); conditions: 10 or 25 mM salt; 0.5 mM MnCl2; 25 mM Hepes pH 8.1; 95° C. for 60 minutes
Experimental: Twenty μl of 25 mM Hepes, pH 8.1, containing 0.5 mM MnCl2, 1 μm dT4P-DDAO and 10 or 25 mM inorganic or organic salt (see FIG. 5) was heated at 95° C. for 60 minutes. 4 μl of each sample was treated with BAP as described above and read on Tecan ultra plate reader. An unheated sample with MnCl2 (water lane) and a heated sample without Hepes and MnCl2 were used as controls. Fluorescence counts were converted into % degradation as described above.

[3] = Non-enzymatic hydrolysis of dT4P-DDAO in the presence of MnCl2, effect of ammonium sulfate and related salts (FIG. 4); format: physicochemical; conditions: 10 mM salt; 0.5 mM MnCl2; 25 mM Tris.HCl pH 9.0; 95° C. for 60 minutes
Experimental: Four μl of each reaction mix was mixed with 16 μl of BAP solution in Hepes (0.005 units BAP/μl) and incubated at 37° C. for 60 minutes. Samples were read on Tecan ultra plate reader. Un heated sample and unheated sample without MnCl2 were used as controls. Raw fluorescence counts were converted into % degradation by using fluorescence counts from a Snake Venom phosphodiesterase hydrolyzed sample as 100% degraded sample.

SMILES	PCR product formation (T. ba polymerase; absence of any stabilizer, with dA4P-Me)	cycle count at fluorescence threshold plotted against input M13 DNA copies [1]	stabilization of dT4P-DDAO (% degradation) [2]	stabilization of dT4P-DDAO (% degradation) [3]	PCR product formation in the presence of the additive (T. ba polymerase; 10–25 mM salt, dA4P-Me, dG4P-FlEt)
CCOc1ccc2c(c1)Oc1cc(OP(=O)(O)OP(=O)(O)OP(=O)(O)OP(=O)(O)OC[C@H]3O[C@@H](n4cnc5c(=O)[nH]c(N)nc54)C[C@@H]3O)ccc1C21OC(=O)c2ccccc21 (some centres unmarked) [dG4P-FlEt, 2′-Deoxyguanosine-5′-(δ-3′-(6′-ethoxyfluorescein)) tetraphosphate]	PCR product was separated	straight line			
N.N.O=S(=O)(O)O [ammonium sulfate]			stabilize the nucleotide	clearly stabilizes	PCR product was separated
